Test results as given in PMC7516806, “Hybrid Antimicrobial Peptide Targeting Staphylococcus aureus and Displaying Anti-infective Activity in a Murine Model” (Frontiers in Microbiology, 2020).
Positions of bridges follow the written chain, without caps; N, C: chain ends. Residues, ends and D or L forms follow the SMILES beside them.

Experiments:
[1] = test system: S. aureus 29213; assay: MIC in the presence of physiological salts; format: cell-based, Staphylococcus aureus; conditions: three independent repeats, unit not given in Table 4; for MIC against S. aureus 29213, FeCl3: 4 μM FeCl3; for MIC against S. aureus 29213, NH4Cl: 6 μM NH4Cl; for MIC against S. aureus 29213, ZnCl2: 8 μM ZnCl2; for MIC against S. aureus 29213, MgCl2: 1 mM MgCl2; for MIC against S. aureus 29213, CaCl2: 2 mM CaCl2; for MIC against S. aureus 29213, KCl: 4.5 mM KCl; for MIC against S. aureus 29213, NaCl: 150 mM NaCl
Description: (§1) The experiment was repeated at least three times independently.
The MIC of peptides was determined in the presence of salts at physiological concentrations (150 mM NaCl, 4.5 mM KCl, 6 μM NH4Cl, 8 μM ZnCl2, 1 mM MgCl2, 2 mM CaCl2, and 4 μM FeCl3) as described previously ([Dong et al., 2014]). All experiments were performed three times independently.

[2] = test system: L. rhamnosus 1.0911; assay: MIC, modified microtiter dilution; format: cell-based, Lactobacillus rhamnosus; conditions: 2–7 × 10^5 CFU/ml, 37°C, 24 h, no turbidity, at least three independent repeats
Source text: as §1

[3] = test system: L. rhamnosus 1.0385; assay: MIC, modified microtiter dilution; format: cell-based, Lactobacillus rhamnosus; conditions: 2–7 × 10^5 CFU/ml, 37°C, 24 h, no turbidity, at least three independent repeats
Source text: as §1

[4] = test system: L. rhamnosus 7469; assay: MIC, modified microtiter dilution; format: cell-based, Lactobacillus rhamnosus; conditions: 2–7 × 10^5 CFU/ml, 37°C, 24 h, no turbidity, at least three independent repeats
Source text: as §1

[5] = test system: L. rhamnosus 1.0936; assay: MIC, modified microtiter dilution; format: cell-based, Lactobacillus rhamnosus; conditions: 2–7 × 10^5 CFU/ml, 37°C, 24 h, no turbidity, at least three independent repeats
Source text: as §1

[6] = test system: P. aeruginosa 27853; assay: MIC, modified microtiter dilution; format: cell-based, Pseudomonas aeruginosa; conditions: MHB, 2–7 × 10^5 CFU/ml, 37°C, 24 h, no turbidity, at least three independent repeats
Source text: as §1

[7] = test system: MRSA 43300; format: cell-based, Staphylococcus aureus; conditions: MHB, 2–7 × 10^5 CFU/ml, 37°C, 24 h, no turbidity, at least three independent repeats
Source text: as §1

[8] = test system: S. typhimurium 14028; assay: MIC, modified microtiter dilution; format: cell-based, Salmonella typhimurium; conditions: MHB, 2–7 × 10^5 CFU/ml, 37°C, 24 h, no turbidity, at least three independent repeats
Source text: as §1

[9] = test system: S. typhimurium 7731; assay: MIC, modified microtiter dilution; format: cell-based, Salmonella typhimurium; conditions: MHB, 2–7 × 10^5 CFU/ml, 37°C, 24 h, no turbidity, at least three independent repeats
Source text: as §1

[10] = test system: E. coli K99; conditions: MHB, 2–7 × 10^5 CFU/ml, 37°C, 24 h, no turbidity, at least three independent repeats
Source text: (§2) The bacterial strains Escherichia coli (E. coli) ATCC 25922, E. coli K88, E. coli K99, Pseudomonas aeruginosa (P. aeruginosa) ATCC 27853, Escherichia coli (E. coli) UB1005, Salmonella typhimurium 14028, Salmonella pullorum (S. pullorum) C7913, S. typhimurium C7731, S. aureus ATCC 29213, MRSA ATCC 43300, and S. aureus ATCC 25923 were obtained from the College of Veterinary Medicine, Northeast Agricultural University, China. Lactobacillus plantarum (L. plantarum) 8014, Lactobacillus rhamnosus (L. rhamnosus) 7469, L. rhamnosus 1.0911, L. rhamnosus 1.0936, and L. rhamnosus 1.0385 were obtained from the Key Laboratory of Food College, Northeast Agricultural University, China.
(§3) As in a previous study, the antimicrobial activities of the AMPs were investigated using a modified standard microtiter dilution method ([Dong et al., 2014]). The peptides were serially diluted with a solution containing 0.01% acetic acid and 0.2% bovine serum albumin (BSA, Sigma) in 96-well plates. The bacteria grew to the mid-log phase and then were dissolved in MHB at concentration of 2–7 × 10^5 CFU/ml. The peptides and bacterial solution were mixed in equal volume in a 37°C incubator for 24 h. […] Mueller-Hinton broth with microorganisms was used as the positive control, and the pure broth was used as the negative control. The experiment was repeated at least three times independently.

[11] = test system: E. coli K88; conditions: MHB, 2–7 × 10^5 CFU/ml, 37°C, 24 h, no turbidity, at least three independent repeats
Source text: as §2, §3

[12] = test system: E. coli 25922; assay: MIC, modified microtiter dilution; format: cell-based, Escherichia coli; conditions: MHB, 2–7 × 10^5 CFU/ml, 37°C, 24 h, lowest concentration with no turbidity, at least three independent repeats
Source text: as §1

[13] = test system: E. coli UB1005; assay: MIC, modified microtiter dilution; format: cell-based, Escherichia coli; conditions: MHB, 2–7 × 10^5 CFU/ml, 37°C, 24 h, no turbidity, at least three independent repeats
Source text: as §1

[14] = test system: S. aureus 29213; assay: MIC, modified microtiter dilution; format: cell-based, Staphylococcus aureus; conditions: MHB, 2–7 × 10^5 CFU/ml, 37°C, 24 h, no turbidity, at least three independent repeats
Source text: as §1

[15] = test system: S. aureus 25923; assay: MIC, modified microtiter dilution; format: cell-based, Staphylococcus aureus; conditions: MHB, 2–7 × 10^5 CFU/ml, 37°C, 24 h, no turbidity, at least three independent repeats
Source text: as §1

[16] = test system: RAW 264.7 cells; assay: Cytotoxicity, MTT dye reduction assay; format: cell-based, murine; conditions: highest concentration of 128 μM, 4 h, three independent repeats
Description: The cytotoxicity of peptides was determined by healthy human erythrocytes and the murine macrophage cell line RAW 264.7 via a hemolysis assay and MTT dye reduction assay, respectively ([Wang et al., 2018]). In the hemolysis assay, fresh hRBCs from healthy people were centrifuged for 5 min at 1,000 × g and then washed three times with PBS (pH = 7.2). The 100 μL erythrocyte suspension and peptides were incubated for 1.5 h in an incubator at 37°C. The 96-well plates were centrifuged at 1,000 × g for 5 min, and the supernatants were carefully aspirated. The absorbance at 570 nm indicated the leakage of hemoglobin. The hRBCs in the PBS sample was used as the negative control, and 0.1% Triton X-100 addition served as the positive control. In the MTT dye reduction assay, 1.0–2.0 × 10^5 cells were plated in 96-well plates and then treated with various concentrations of peptides for 4 h at 37°C in a 5% CO2 incubator. Subsequently, 50 μL of MTT was added to the plated cells at a final concentration of 0.5 mg/mL and incubated for 4 h. Then, the cells were centrifuged at 1000 × g for 5 min, and the supernatants were discarded. Formazan crystals were dissolved in 150 μL of DMSO, and the OD570 nm was measured using a microplate reader (TECAN GENios F129004; TECAN, Austria). The experiment was repeated three times independently.

[17] = test system: L. plantarum 8014; assay: MIC, modified microtiter dilution; format: cell-based, Lactobacillus plantarum; conditions: 2–7 × 10^5 CFU/ml, 37°C, 24 h, no turbidity, at least three independent repeats
Source text: as §1

[18] = test system: panel of bacterial species; assay: MIC against a panel of bacterial species (summary statements); format: cell-based; conditions: all tested bacteria, up to the highest concentration measured
Source text: as §1

[19] = test system: S. pullorum 7913; assay: MIC, modified microtiter dilution; format: cell-based, Salmonella pullorum; conditions: MHB, 2–7 × 10^5 CFU/ml, 37°C, 24 h, no turbidity, at least three independent repeats
Source text: as §1

[20] = test system: Staphylococcus aureus 29213; assay: Propidium iodide uptake assay; format: cell-based; conditions: 0.5 × MIC, MIC and 2 × MIC; 10 μg/mL PI; ex 535 nm, em 617 nm
Description: Staphylococcus aureus 29213 was washed three times with buffer (5 mM HEPES, 5 mM glucose, pH 7.4) after the bacterium grew to the mid-log phase and then diluted to an OD600 = 0.05. Propidium iodide was then added to the final concentration of 10 μg/mL and incubated for 30 min at 4°C. The peptides were added to 12-well plates, which were filled with 2 mL of the cell suspension. An F-4500 fluorescence spectrophotometer (Hitachi, Japan) was employed to measure the fluorescence value at an excitation wavelength of 535 nm and an emission wavelength of 617 nm. Maximal augmentation was monitored, and the fluorescence of the mixture of bacteria and dye served as the blank control ([Morita et al., 2015]).

[21] = test system: S. aureus 29213; assay: Cytoplasmic membrane depolarization, diSC3-5; format: cell-based, Staphylococcus aureus; conditions: 0.4 μM diSC3-5, 100 mM KCl, ex 622 nm, em 670 nm
Description: The dye diSC3-5 was employed to assay cytoplasmic membrane depolarization activities ([Shao et al., 2018]). S. aureus 29213 was diluted to an OD600 = 0.05 after washing three times with buffer (5 mM HEPES, 5 mM glucose, pH 7.4) when the bacteria grew to mid-log phase. Then, diSC3-5 at a final concentration of 0.4 μM was added into the medium and incubated for 1–1.5 h. The final concentration of 100 mM KCl was then added to the solution for 15 min. The peptides were added to 12-well plates, which were filled with 2 mL of cell suspension. An F-4500 fluorescence spectrophotometer (Hitachi, Japan) was employed to measure the fluorescence value at an excitation wavelength of 622 nm and an emission wavelength of 670 nm. Maximal augmentation was monitored, and the fluorescence of the mixture of bacteria and dye served as the blank control.

[22] = test system: Staphylococcus aureus 29213; assay: Bacterial resistance development, serial passaging; format: cell-based; conditions: serial passage at sub-MIC for 15 days
Source text: Staphylococcus aureus 29213 was employed to assess the development of resistance by the serial passaging method, as previously described ([Lyu et al., 2017]). Minimum inhibitory concentration testing was first conducted for all of the compounds to be tested, as described above. S. aureus was harvested from 96-well plates of sub-MIC levels, diluted in MHB to a concentration of 2–7 × 10^5 CFU/mL, and then subjected to MIC determination for up to 15 days. The change in MIC values determines the development of antibiotic resistance in S. aureus.

| Compound | MIC against S. aureus 29213, FeCl3 [1] | MIC against S. aureus 29213, NH4Cl [1] | MIC against S. aureus 29213, ZnCl2 [1] | MIC against S. aureus 29213, MgCl2 [1] | MIC against S. aureus 29213, CaCl2 [1] | MIC against S. aureus 29213, KCl [1] | MIC against S. aureus 29213, NaCl [1] | MIC L. rhamnosus 1.0911 [2] | MIC L. rhamnosus 1.0385 [3] | MIC L. rhamnosus 7469 [4] | MIC L. rhamnosus 1.0936 [5] | MIC P. aeruginosa 27853 [6] | MIC MRSA 43300 [7] | MIC S. typhimurium 14028 [8] | MIC S. typhimurium 7731 [9] | MIC E. coli K99 [10] | MIC E. coli K88 [11] | MIC E. coli 25922 [12] | MIC E. coli UB1005 [13] | MIC S. aureus 29213 [14] | other results |
| --- | --- | --- | --- | --- | --- | --- | --- | --- | --- | --- | --- | --- | --- | --- | --- | --- | --- | --- | --- | --- | --- |
| C[C@H](NC(=O)[C@H](C)NC(=O)[C@H](Cc1c[nH]c2ccccc12)NC(=O)[C@H](Cc1c[nH]c2ccccc12)NC(=O)[C@H](Cc1c[nH]c2ccccc12)NC(=O)[C@H](CCCNC(=N)N)NC(=O)[C@@H]1CSSC[C@H](N)C(=O)N[C@@H](C)C(=O)N[C@@H](CO)C(=O)N[C@@H](Cc2ccc(O)cc2)C(=O)N[C@@H](Cc2ccccc2)C(=O)N1)C(N)=O [Peptide S3] (H-CASYFCRWWWAA-NH2; disulfide 1-6; N-terminus assumed) | >64 µM | >64 µM | >64 µM | >64 µM | >64 µM | >64 µM | >64 µM | >64 µM | >64 µM | >64 µM | >64 µM | >64 µM | >64 µM | >64 µM | >64 µM | >64 µM | >64 µM | >64 µM | >64 µM | >64 µM | MIC S. aureus 25923 [15]: >64 µM; RAW 264.7 cell survival rate [16]: 84%; MIC L. plantarum 8014 [17]: >64 µM; antimicrobial activity against the tested microorganisms [18]: failed to show antimicrobial activity; MIC S. pullorum 7913 [19]: >64 µM |
| CC(C)C[C@H](NC(=O)[C@H](CC(C)C)NC(=O)[C@H](Cc1c[nH]c2ccccc12)NC(=O)[C@H](Cc1c[nH]c2ccccc12)NC(=O)[C@H](Cc1c[nH]c2ccccc12)NC(=O)[C@H](CCCNC(=N)N)NC(=O)[C@H](CS)NC(=O)[C@H](Cc1ccccc1)NC(=O)[C@H](Cc1ccc(O)cc1)NC(=O)[C@H](CO)NC(=O)[C@H](C)NC(=O)[C@@H](N)CS)C(N)=O [Peptide S4] (H-CASYFCRWWWLL-NH2; N-terminus assumed) | >64 µM | >64 µM | >64 µM | >64 µM | >64 µM | >64 µM | >64 µM | >64 µM | >64 µM | >64 µM | >64 µM | >64 µM | >64 µM | >64 µM | >64 µM | >64 µM | >64 µM | >64 µM | >64 µM | >64 µM | MIC S. aureus 25923 [15]: >64 µM; RAW 264.7 cell survival rate [16]: 90%; MIC L. plantarum 8014 [17]: >64 µM; antimicrobial activity against the tested microorganisms [18]: failed to show antimicrobial activity; MIC S. pullorum 7913 [19]: >64 µM |
| melittin [reference compound] | – | – | – | – | – | – | – | – | – | – | – | – | – | – | – | – | – | – | – | – | PI uptake (PI fluorescence) [20]: rapidly disrupted the bacterial membrane and caused PI uptake; cytoplasmic membrane depolarization (diSC3-5 fluorescence) [21]: rapid fluorescence intensity increase |
| penicillin [reference compound] | – | – | – | – | – | – | – | – | – | – | – | – | – | – | – | – | – | – | – | – | change in MIC value, 15th day versus first day [22]: 16 fold |
